Values of other authors in patent US12502363B2, “Ketamine and ketamine/nap for treatment of ADNP syndrome and related neurological conditions” (ADNP Kids Research Foundation, priority 2019, dated 2025).

Tests used:
[1] = system: activated caspase-3 (AC3); settings: anesthetic doses of ketamine
[2] = system: ADNP gene expression in the somatosensory cortex; settings: somatosensory cortex of post-natal day 7 rats, anesthetic dose of ketamine (20 mg/kg), microarray
ADNP = settings: 5 mg/kg ketamine, healthy rats without ADNP mutations

## CNC1(c2ccccc2Cl)CCCCC1=O (stereo not drawn) [ketamine, Ketamine]
[1]
  levels of pro-apoptotic enzyme activated caspase-3 (AC3): increased levels
[2]
  ADNP gene expression: increases significantly
ADNP
  ADNP in the Fasciola Cinereum (FC) and SSC layers II/III: increased ADNP
